Experimental data as given in article PMC12102759 (Protein Science : A Publication of the Protein Society, 2025).

system: PABPC1 PABC; assay type: binding, human; conditions: DMS-BM library, bait PABPC1 PABC, prey ATXN2, TLNPNAKEFNPRSF(averaged) over the two overlapping peptides; N = wild type, row aa = residue at this position

**Q.** For “TLNPNAKEFNPRSF(averaged) N5Y (TLNPYAKEFNPRSF)”, which “DMS-derived PSSM value (averaged), position N5” value is on record?
**A.** 0.004226

**Q.** How did the “DMS-derived PSSM value (averaged), position N10” value turn out when “TLNPNAKEFNPRSF(averaged) N10A (TLNPNAKEFAPRSF)” was run?
**A.** 0.08276

**Q.** For “TLNPNAKEFNPRSF(averaged) N10D (TLNPNAKEFDPRSF)”, which “DMS-derived PSSM value (averaged), position N10” value is on record?
**A.** 0.04905

**Q.** Which “DMS-derived PSSM value (averaged), position N10” value does the source give for “TLNPNAKEFNPRSF(averaged) N10E (TLNPNAKEFEPRSF)” here?
**A.** 0.03135

**Q.** “TLNPNAKEFNPRSF(averaged) N10F (TLNPNAKEFFPRSF)” was tested. Which “DMS-derived PSSM value (averaged), position N10” value did it give?
**A.** 0.02798

**Q.** For “TLNPNAKEFNPRSF(averaged) N10G (TLNPNAKEFGPRSF)”, which “DMS-derived PSSM value (averaged), position N10” value is on record?
**A.** 0.02059

**Q.** How did the “DMS-derived PSSM value (averaged), position N10” value turn out when “TLNPNAKEFNPRSF(averaged) N10H (TLNPNAKEFHPRSF)” was run?
**A.** 0.03178

**Q.** For “TLNPNAKEFNPRSF(averaged) N10I (TLNPNAKEFIPRSF)”, which “DMS-derived PSSM value (averaged), position N10” value is on record?
**A.** 0.01803

**Q.** How did the “DMS-derived PSSM value (averaged), position N10” value turn out when “TLNPNAKEFNPRSF(averaged) N10K (TLNPNAKEFKPRSF)” was run?
**A.** 0.01006

**Q.** “TLNPNAKEFNPRSF(averaged) N10L (TLNPNAKEFLPRSF)” was tested. Which “DMS-derived PSSM value (averaged), position N10” value did it give?
**A.** 0.09868

**Q.** How did the “DMS-derived PSSM value (averaged), position N10” value turn out when “TLNPNAKEFNPRSF(averaged) N10M (TLNPNAKEFMPRSF)” was run?
**A.** 0.09167

**Q.** For “TLNPNAKEFNPRSF(averaged) N10P (TLNPNAKEFPPRSF)”, which “DMS-derived PSSM value (averaged), position N10” value is on record?
**A.** 0.03074

**Q.** How did the “DMS-derived PSSM value (averaged), position N10” value turn out when “TLNPNAKEFNPRSF(averaged) N10Q (TLNPNAKEFQPRSF)” was run?
**A.** 0.06161

**Q.** “TLNPNAKEFNPRSF(averaged) N10R (TLNPNAKEFRPRSF)” was tested. Which “DMS-derived PSSM value (averaged), position N10” value did it give?
**A.** 0.02307

**Q.** How did the “DMS-derived PSSM value (averaged), position N10” value turn out when “TLNPNAKEFNPRSF(averaged) N10S (TLNPNAKEFSPRSF)” was run?
**A.** 0.02002

**Q.** Which “DMS-derived PSSM value (averaged), position N10” value does the source give for “TLNPNAKEFNPRSF(averaged) N10T (TLNPNAKEFTPRSF)” here?
**A.** 0.03227

**Q.** How did the “DMS-derived PSSM value (averaged), position N10” value turn out when “TLNPNAKEFNPRSF(averaged) N10V (TLNPNAKEFVPRSF)” was run?
**A.** 0.105

**Q.** With “TLNPNAKEFNPRSF(averaged) N10W (TLNPNAKEFWPRSF)” as the substance, how does the “DMS-derived PSSM value (averaged), position N10” value read?
**A.** 0.1093

**Q.** Which “DMS-derived PSSM value (averaged), position N10” value does the source give for “TLNPNAKEFNPRSF(averaged) N10Y (TLNPNAKEFYPRSF)” here?
**A.** 0.1006

same assay, conditions: DMS-BM library, bait PABPC1 PABC, prey ATXN2, TLNPNAKEFNPRSF(averaged) over the two overlapping peptides; P = wild type, row aa = residue at this position

**Q.** How did the “DMS-derived PSSM value (averaged), position P4” value turn out when “TLNPNAKEFNPRSF(averaged) P4A (TLNANAKEFNPRSF)” was run?
**A.** 0.01026

**Q.** With “TLNPNAKEFNPRSF(averaged) P4D (TLNDNAKEFNPRSF)” as the substance, how does the “DMS-derived PSSM value (averaged), position P4” value read?
**A.** 0

**Q.** How did the “DMS-derived PSSM value (averaged), position P4” value turn out when “TLNPNAKEFNPRSF(averaged) P4E (TLNENAKEFNPRSF)” was run?
**A.** 0.0008442

**Q.** “TLNPNAKEFNPRSF(averaged) P4F (TLNFNAKEFNPRSF)” was tested. Which “DMS-derived PSSM value (averaged), position P4” value did it give?
**A.** 0.005863

**Q.** “TLNPNAKEFNPRSF(averaged) P4G (TLNGNAKEFNPRSF)” was tested. Which “DMS-derived PSSM value (averaged), position P4” value did it give?
**A.** 0.00705

**Q.** With “TLNPNAKEFNPRSF(averaged) P4H (TLNHNAKEFNPRSF)” as the substance, how does the “DMS-derived PSSM value (averaged), position P4” value read?
**A.** 0.02342

**Q.** Which “DMS-derived PSSM value (averaged), position P4” value does the source give for “TLNPNAKEFNPRSF(averaged) P4I (TLNINAKEFNPRSF)” here?
**A.** 0.2825

**Q.** With “TLNPNAKEFNPRSF(averaged) P4K (TLNKNAKEFNPRSF)” as the substance, how does the “DMS-derived PSSM value (averaged), position P4” value read?
**A.** 0

**Q.** “TLNPNAKEFNPRSF(averaged) P4L (TLNLNAKEFNPRSF)” was tested. Which “DMS-derived PSSM value (averaged), position P4” value did it give?
**A.** 0.1003

**Q.** Which “DMS-derived PSSM value (averaged), position P4” value does the source give for “TLNPNAKEFNPRSF(averaged) P4M (TLNMNAKEFNPRSF)” here?
**A.** 0.0005819

**Q.** With “TLNPNAKEFNPRSF(averaged) P4N (TLNNNAKEFNPRSF)” as the substance, how does the “DMS-derived PSSM value (averaged), position P4” value read?
**A.** 0.0005247

**Q.** With “TLNPNAKEFNPRSF(averaged) P4Q (TLNQNAKEFNPRSF)” as the substance, how does the “DMS-derived PSSM value (averaged), position P4” value read?
**A.** 0.01774

**Q.** “TLNPNAKEFNPRSF(averaged) P4R (TLNRNAKEFNPRSF)” was tested. Which “DMS-derived PSSM value (averaged), position P4” value did it give?
**A.** 0

**Q.** Which “DMS-derived PSSM value (averaged), position P4” value does the source give for “TLNPNAKEFNPRSF(averaged) P4S (TLNSNAKEFNPRSF)” here?
**A.** 0.01466

**Q.** With “TLNPNAKEFNPRSF(averaged) P4T (TLNTNAKEFNPRSF)” as the substance, how does the “DMS-derived PSSM value (averaged), position P4” value read?
**A.** 0.01555

**Q.** How did the “DMS-derived PSSM value (averaged), position P4” value turn out when “TLNPNAKEFNPRSF(averaged) P4V (TLNVNAKEFNPRSF)” was run?
**A.** 0.4012

**Q.** “TLNPNAKEFNPRSF(averaged) P4W (TLNWNAKEFNPRSF)” was tested. Which “DMS-derived PSSM value (averaged), position P4” value did it give?
**A.** 0

**Q.** “TLNPNAKEFNPRSF(averaged) P4Y (TLNYNAKEFNPRSF)” was tested. Which “DMS-derived PSSM value (averaged), position P4” value did it give?
**A.** 0

**Q.** With “TLNPNAKEFNPRSF(averaged) P11A (TLNPNAKEFNARSF)” as the substance, how does the “DMS-derived PSSM value (averaged), position P11” value read?
**A.** 0.00277

**Q.** “TLNPNAKEFNPRSF(averaged) P11D (TLNPNAKEFNDRSF)” was tested. Which “DMS-derived PSSM value (averaged), position P11” value did it give?
**A.** 0.002991

**Q.** Which “DMS-derived PSSM value (averaged), position P11” value does the source give for “TLNPNAKEFNPRSF(averaged) P11E (TLNPNAKEFNERSF)” here?
**A.** 0.00334

**Q.** “TLNPNAKEFNPRSF(averaged) P11F (TLNPNAKEFNFRSF)” was tested. Which “DMS-derived PSSM value (averaged), position P11” value did it give?
**A.** 0.06425

**Q.** With “TLNPNAKEFNPRSF(averaged) P11G (TLNPNAKEFNGRSF)” as the substance, how does the “DMS-derived PSSM value (averaged), position P11” value read?
**A.** 0.05139

**Q.** “TLNPNAKEFNPRSF(averaged) P11H (TLNPNAKEFNHRSF)” was tested. Which “DMS-derived PSSM value (averaged), position P11” value did it give?
**A.** 0.07852

**Q.** “TLNPNAKEFNPRSF(averaged) P11I (TLNPNAKEFNIRSF)” was tested. Which “DMS-derived PSSM value (averaged), position P11” value did it give?
**A.** 0.006686

**Q.** Which “DMS-derived PSSM value (averaged), position P11” value does the source give for “TLNPNAKEFNPRSF(averaged) P11K (TLNPNAKEFNKRSF)” here?
**A.** 0

**Q.** Which “DMS-derived PSSM value (averaged), position P11” value does the source give for “TLNPNAKEFNPRSF(averaged) P11L (TLNPNAKEFNLRSF)” here?
**A.** 0.01529

**Q.** How did the “DMS-derived PSSM value (averaged), position P11” value turn out when “TLNPNAKEFNPRSF(averaged) P11M (TLNPNAKEFNMRSF)” was run?
**A.** 0.00553

**Q.** Which “DMS-derived PSSM value (averaged), position P11” value does the source give for “TLNPNAKEFNPRSF(averaged) P11N (TLNPNAKEFNNRSF)” here?
**A.** 0.02352

**Q.** For “TLNPNAKEFNPRSF(averaged) P11Q (TLNPNAKEFNQRSF)”, which “DMS-derived PSSM value (averaged), position P11” value is on record?
**A.** 0.04932

**Q.** Which “DMS-derived PSSM value (averaged), position P11” value does the source give for “TLNPNAKEFNPRSF(averaged) P11R (TLNPNAKEFNRRSF)” here?
**A.** 0.003178

**Q.** How did the “DMS-derived PSSM value (averaged), position P11” value turn out when “TLNPNAKEFNPRSF(averaged) P11S (TLNPNAKEFNSRSF)” was run?
**A.** 0.02695

**Q.** With “TLNPNAKEFNPRSF(averaged) P11T (TLNPNAKEFNTRSF)” as the substance, how does the “DMS-derived PSSM value (averaged), position P11” value read?
**A.** 0.141

**Q.** How did the “DMS-derived PSSM value (averaged), position P11” value turn out when “TLNPNAKEFNPRSF(averaged) P11V (TLNPNAKEFNVRSF)” was run?
**A.** 0.44

**Q.** With “TLNPNAKEFNPRSF(averaged) P11W (TLNPNAKEFNWRSF)” as the substance, how does the “DMS-derived PSSM value (averaged), position P11” value read?
**A.** 0.01933

**Q.** “TLNPNAKEFNPRSF(averaged) P11Y (TLNPNAKEFNYRSF)” was tested. Which “DMS-derived PSSM value (averaged), position P11” value did it give?
**A.** 0.02499

same assay, conditions: DMS-BM library, bait PABPC1 PABC, prey ATXN2, TLNPNAKEFNPRSF(averaged) over the two overlapping peptides; R = wild type, row aa = residue at this position

**Q.** “TLNPNAKEFNPRSF(averaged) R12A (TLNPNAKEFNPASF)” was tested. Which “DMS-derived PSSM value (averaged), position R12” value did it give?
**A.** 0.05134

**Q.** “TLNPNAKEFNPRSF(averaged) R12D (TLNPNAKEFNPDSF)” was tested. Which “DMS-derived PSSM value (averaged), position R12” value did it give?
**A.** 0.02577

**Q.** For “TLNPNAKEFNPRSF(averaged) R12E (TLNPNAKEFNPESF)”, which “DMS-derived PSSM value (averaged), position R12” value is on record?
**A.** 0.01393

**Q.** With “TLNPNAKEFNPRSF(averaged) R12F (TLNPNAKEFNPFSF)” as the substance, how does the “DMS-derived PSSM value (averaged), position R12” value read?
**A.** 0.0319

**Q.** How did the “DMS-derived PSSM value (averaged), position R12” value turn out when “TLNPNAKEFNPRSF(averaged) R12G (TLNPNAKEFNPGSF)” was run?
**A.** 0.06327

**Q.** For “TLNPNAKEFNPRSF(averaged) R12H (TLNPNAKEFNPHSF)”, which “DMS-derived PSSM value (averaged), position R12” value is on record?
**A.** 0.1075

**Q.** For “TLNPNAKEFNPRSF(averaged) R12I (TLNPNAKEFNPISF)”, which “DMS-derived PSSM value (averaged), position R12” value is on record?
**A.** 0.04426

**Q.** With “TLNPNAKEFNPRSF(averaged) R12K (TLNPNAKEFNPKSF)” as the substance, how does the “DMS-derived PSSM value (averaged), position R12” value read?
**A.** 0.01002
